Experiments:
[1] = biological target: T1, BRD4 BD1 (Homo sapiens, UniProt O60885); test: AlphaScreen binding assay, BRD4 Bromodomain 1
T1 construct: made in house
Summary of the method: (§1)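 An AlphaScreen competition format was used with His-BRD4 BD1 or BD2 and biotin-H4 K5/8/12/16-acetyl peptide, each at matched final levels of 50 nM (BD1) or 100 nM (BD2). Incubation in HEPES/NaCl buffer with 0.1% BSA and 0.01% Triton X-100 ran ≥1 h before IC50 determination.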

[2] = system: MV4-11 cells; test: Oncology cell growth assay (3-day proliferation, CellTiter-Glo); assay type: cell-based; details: Homo sapiens, MV4-11, 72 h, AML cell line MV4-11, 72 hours, compounds grouped by IC50 range, read-out: MV4-11 IC50 (inhibition of proliferation, gIC50)
Procedure: The impact of Example compounds on cancer cell proliferation was determined using the acute myelocytic leukemia (AML) cell line MV4-11 (ATCC) in a 3-day proliferation assay. MV4-11 cells were maintained in RPMI 1640 media supplemented with 10% FBS at 37° C. and an atmosphere of 5% CO2. For compound testing, compound dilutions series were prepared in DMSO via a 3-fold serial dilution from 2 mM to 0.001 mM in 384-well white flat bottom plates. The final compound concentrations in the wells were 10, 3.3, 1.1, 0.37, 0.12, 0.041, 0.013 and 0.0045 μM. MV4-11 cells were plated at a density of 3000 cells/well in final volume of 50 μl culture media and incubated for 72 hours. […] Luminescent signal from the CellTiter-Glo assay was read on an EnVision multilabel plate reader (PerkinElmer). Values for the concentration that inhibited cell growth by 50% (gIC50) between the DMSO control and background control (no cells) were determined using IDBS Activity Base software with a four parameter logistic curve fit by the equation y=A+((B−A)/(1+((C/x)^D))), wherein A denotes the bottom plateau of the curve, B denotes the top plateau of the curve, C denotes the x value at the middle of the curve, D denotes the slope factor, x denotes the original known x values, and y denotes the original known y values. Data was fitted using the Levenburg Marquardt algorithm.

[3] = biological target: T2, BRD4 BD2 (Homo sapiens, UniProt O60885); test: AlphaScreen binding assay, BRD4 Bromodomain 2
T2 construct: made in house
Summary of the method: as §1

Row | Structure (SMILES) | IC50 [1] [nM] | IC50 [2] [nM] | IC50 [3] [nM]
1 | CC(=O)N1c2ccc(-c3cnn(C4CC4)c3)cc2N(C(=O)C2CC2)C[C@@H]1C [Example I-8, (S)-1-(4-(cyclopropanecarbonyl)-6-(1-cyclopropyl-1H-pyrazol-4-yl)-2-methyl-3,4-dihydroquinoxalin-1(2H)-yl)ethanone] | 100 to 1000 | 100 to 500 | < 50
2 | CCOC(=O)N1C[C@H](C)N(C(C)=O)c2ccc(-c3cnn(C4COC4)c3)cc21 [Example I-9, (S)-ethyl 4-acetyl-3-methyl-7-(1-(oxetan-3-yl)-1H-pyrazol-4-yl)-3,4-dihydro-quinoxaline-1(2H)-carboxylate] | 100 to 1000 | 100 to 500 | 50 to 500
3 | CC(=O)N1c2ccc(-c3cnn(C4COC4)c3)cc2N(C(=O)C2CC2)C[C@@H]1C [Example I-10, (S)-1-(4-(cyclopropanecarbonyl)-2-methyl-6-(1-(oxetan-3-yl)-1H-pyrazol-4-yl)-3,4-dihydroquinoxalin-1(2H)-yl)ethanone] | 100 to 1000 | 100 to 500 | 50 to 500
4 | CC(=O)N1c2ccc(-c3cn[nH]c3)cc2N(C(=O)c2ccco2)C[C@@H]1C [Example I-13, (S)-1-(4-(furan-2-carbonyl)-2-methyl-6-(1H-pyrazol-4-yl)-3,4-dihydro-quinoxalin-1(2H)-yl)ethanone] | 100 to 1000 | 100 to 500 | < 50
5 | CC(=O)N1c2ccc(-c3cc[nH]n3)cc2N(C(=O)c2ccco2)C[C@@H]1C [Example I-14, (S)-1-(4-(furan-2-carbonyl)-2-methyl-6-(1H-pyrazol-3-yl)-3,4-dihydro-quinoxalin-1(2H)-yl)ethanone] | 1000 to 10000 | 100 to 500 | < 50
6 | CC(=O)N1c2ccc(-c3cnc(C)s3)cc2N(C(=O)c2ccco2)C[C@@H]1C [Example I-15, (S)-1-(4-(furan-2-carbonyl)-2-methyl-6-(2-methylthiazol-5-yl)-3,4-dihydroquinoxalin-1(2H)-yl)ethanone] | 1000 to 10000 | 100 to 500 | < 50
7 | CC(=O)N1c2ccc(-c3cn[nH]c3)cc2N(C(=O)Oc2ccccc2)C[C@@H]1C [Example I-16, (S)-phenyl 4-acetyl-3-methyl-7-(1H-pyrazol-4-yl)-3,4-dihydroquinoxaline-1(2H)-carboxylate] | 100 to 1000 | < 100 | < 50
8 | COCCn1cc(-c2ccc3c(c2)N(C(=O)OC(C)C)C[C@H](C)N3C(C)=O)cn1 [Example I-17, (S)-isopropyl 4-acetyl-7-(1-(2-methoxyethyl)-1H-pyrazol-4-yl)-3-methyl-3,4-dihydroquinoxaline-1(2H)-carboxylate] | 100 to 1000 | 100 to 500 | < 50
9 | COCCn1cc(-c2ccc3c(c2)N(C(=O)c2ccco2)C[C@H](C)N3C(C)=O)cn1 [Example I-18, (S)-1-(4-(furan-2-carbonyl)-6-(1-(2-methoxyethyl)-1H-pyrazol-4-yl)-2-methyl-3,4-dihydroquinoxalin-1(2H)-yl)ethanone] | 100 to 1000 | 100 to 500 | < 50
10 | CCOC(=O)N1C[C@H](C)N(C(C)=O)c2ccc(-c3cn[nH]c3)cc21 [Example I-19, (S)-ethyl 4-acetyl-3-methyl-7-(1H-pyrazol-4-yl)-3,4-dihydroquinoxaline-1(2H)-carboxylate] | 1000 to 10000 | 100 to 500 | 50 to 500
11 | CCOC(=O)N1C[C@H](C)N(C(C)=O)c2ccc(-c3cnn(C4CC4)c3)cc21 [Example I-21, (S)-ethyl 4-acetyl-7-(1-cyclopropyl-1H-pyrazol-4-yl)-3-methyl-3,4-dihydroquinoxaline-1(2H)-carboxylate] | 100 to 1000 | 100 to 500 | 50 to 500
12 | CC(=O)N1c2ccc(-c3cnn(C4CC4)c3)cc2N(C(=O)OC(C)C)C[C@@H]1C [Example I-22, (S)-isopropyl 4-acetyl-7-(1-cyclopropyl-1H-pyrazol-4-yl)-3-methyl-3,4-dihydroquinoxaline-1(2H)-carboxylate] | 100 to 1000 | < 100 | 50 to 500
13 | CC(=O)N1c2ccc(-c3cnn(C4CC4)c3)cc2N(C(=O)OC2CC(F)(F)C2)C[C@@H]1C [Example I-26, (S)-3,3-difluorocyclobutyl 4-acetyl-7-(1-cyclopropyl-1H-pyrazol-4-yl)-3-methyl-3,4-dihydroquinoxaline-1(2H)-carboxylate] | 100 to 1000 | 100 to 500 | 50 to 500
14 | CC(=O)N1c2ccc(-c3cnn(CCO)c3)cc2N(C(=O)OC2CC(F)(F)C2)C[C@@H]1C [Example I-27, (S)-3,3-difluorocyclobutyl 4-acetyl-7-(1-(2-hydroxyethyl)-1H-pyrazol-4-yl)-3-methyl-3,4-dihydroquinoxaline-1(2H)-carboxylate] | 100 to 1000 | 100 to 500 | 50 to 500
15 | CC(=O)N1c2ccc(-c3cnn(C4CN[C@H]4C)c3)cc2N(C(=O)OC2CCC2)C[C@@H]1C (stereo partly drawn) [Example I-178, cyclobutyl (3S)-4-acetyl-3-methyl-7-{1-[(2S)-2-methylazetidin-3-yl]-1H-pyrazol-4-yl}-1,2,3,4-tetrahydroquinoxaline-1-carboxylate] | 100 to 1000 | 100 to 500 | 
16 | CC(=O)N1c2ccc(-c3ccc(C(=O)NCCN)cc3)cc2N(C(=O)OC(C)C)C[C@@H]1C [Example I-480] | 100 to 1000 | 100 to 500 | 
17 | CC(C)OC(=O)N1C[C@H](C)N(C(=O)C2CC2)c2ccc(-c3ccc(C(=O)N(C)CC(=O)N(C)C)cc3)cc21 [Example I-560] | 100 to 1000 | 100 to 500 | 

Results, then the compound that gave them:

Row | IC50 [1] [nM] | IC50 [2] [nM] | IC50 [3] [nM] | Structure (SMILES)
18 | 100 to 1000 | 100 to 500 | 50 to 500 | CC(=O)N1c2ccc(-c3cnn(C4CCOCC4)c3)cc2N(C(=O)OC2CCC(F)(F)CC2)C[C@@H]1C [Example I-2, (S)-4,4-difluorocyclohexyl 4-acetyl-3-methyl-7-(1-(tetrahydro-2H-pyran-4-yl)-1H-pyrazol-4-yl)-3,4-dihydroquinoxaline-1(2H)-carboxylate]
19 | 100 to 1000 | < 100 | 50 to 500 | COc1ccccc1OC(=O)N1C[C@H](C)N(C(C)=O)c2ccc(-c3cnn(C4COC4)c3)cc21 [Example I-3, (S)-2-methoxyphenyl 4-acetyl-3-methyl-7-(1-(oxetan-3-yl)-1H-pyrazol-4-yl)-3,4-dihydroquinoxaline-1(2H)-carboxylate]
20 | 100 to 1000 | 100 to 500 | 50 to 500 | CC(=O)N1c2ccc(-c3cnn(C4CCOCC4)c3)cc2N(C(=O)OC2CC(F)(F)C2)C[C@@H]1C [Example I-4, (S)-3,3-difluorocyclobutyl 4-acetyl-3-methyl-7-(1-(tetrahydro-2H-pyran-4-yl)-1H-pyrazol-4-yl)-3,4-dihydroquinoxaline-1(2H)-carboxylate]
21 | 100 to 1000 | 100 to 500 | 50 to 500 | CC(=O)N1c2ccc(-c3ccc(S(C)(=O)=O)cc3)cc2N(C(=O)OC2CC(F)(F)C2)C[C@@H]1C [Example I-5, (S)-3,3-difluorocyclobutyl 4-acetyl-3-methyl-7-(4-(methylsulfonyl)phenyl)-3,4-dihydroquinoxaline-1(2H)-carboxylate]
22 | < 100 | 100 to 500 | < 50 | CC(=O)N1c2ccc(-c3cnn(CCO)c3)cc2N(C(=O)OC(C)C)C[C@@H]1C [Example I-12, (S)-isopropyl 4-acetyl-7-(1-(2-hydroxyethyl)-1H-pyrazol-4-yl)-3-methyl-3,4-dihydroquinoxaline-1(2H)-carboxylate]
23 | < 100 | 100 to 500 | 50 to 500 | CC(=O)N1c2ccc(-c3cn[nH]c3)cc2N(C(=O)OC2CCCC2)C[C@@H]1C [Example I-20, (S)-cyclopentyl 4-acetyl-3-methyl-7-(1H-pyrazol-4-yl)-3,4-dihydro-quinoxaline-1(2H)-carboxylate]
24 | < 100 | < 100 | 50 to 500 | CC(=O)N1c2ccc(-c3cnn(C4CC4)c3)cc2N(C(=O)OC2CCCC2)C[C@@H]1C [Example I-23, (S)-cyclopentyl 4-acetyl-7-(1-cyclopropyl-1H-pyrazol-4-yl)-3-methyl-3,4-dihydroquinoxaline-1(2H)-carboxylate]
25 | < 100 | 100 to 500 | 50 to 500 | CC(=O)N1c2ccc(-c3cnn(C4CCC4)c3)cc2N(C(=O)OC(C)C)C[C@@H]1C [Example I-24, (S)-isopropyl 4-acetyl-7-(1-cyclobutyl-1H-pyrazol-4-yl)-3-methyl-3,4-dihydroquinoxaline-1(2H)-carboxylate]
26 | < 100 | < 100 | < 50 | CC(=O)N1c2ccc(-c3cnn(C4CCC4)c3)cc2N(C(=O)OC2CCCC2)C[C@@H]1C [Example I-25, (S)-cyclopentyl 4-acetyl-7-(1-cyclobutyl-1H-pyrazol-4-yl)-3-methyl-3,4-dihydroquinoxaline-1(2H)-carboxylate]
